Measured values published in the NIST ThermoML archive (doi:10.1021/je501041r).

Experiment: xn = mol fraction of the nth substance listed
Settings: 101 kPa, Liquid; for viscosity: Capillary tube (Ostwald / Ubbelohde) method; for mass density: Vibrating tube method

CCCCCCCO [heptan-1-ol] + CC(C)CC(C)(C)C
Settings | mass density [kg/m3] | viscosity [mPa·s]
298.15 K, x2 = 0 | 818.82 | 6.004
298.15 K, x2 = 0.1003 | 804.69 | 4.442
298.15 K, x2 = 0.2002 | 790.62 | 3.258
298.15 K, x2 = 0.3002 | 776.7 | 2.408
298.15 K, x2 = 0.3999 | 763.07 | 1.793
298.15 K, x2 = 0.5 | 749.79 | 1.349
298.15 K, x2 = 0.6 | 736.64 | 1.059
298.15 K, x2 = 0.6999 | 723.94 | 0.827
298.15 K, x2 = 0.7999 | 711.51 | 0.672
298.15 K, x2 = 0.8999 | 699.33 | 0.557
298.15 K, x2 = 0.92 | 697.03 | –
298.15 K, x2 = 0.94 | 694.61 | –
298.15 K, x2 = 0.9599 | 692.3 | –
303.15 K, x2 = 0 | 815.3 | 5.079
303.15 K, x2 = 0.1003 | 801.1 | 3.807
303.15 K, x2 = 0.2002 | 786.96 | 2.834
303.15 K, x2 = 0.3002 | 772.96 | 2.126
303.15 K, x2 = 0.3999 | 759.26 | 1.597
303.15 K, x2 = 0.5 | 745.92 | 1.224
303.15 K, x2 = 0.6 | 732.7 | 0.988
303.15 K, x2 = 0.6999 | 719.94 | 0.782
303.15 K, x2 = 0.7999 | 707.45 | 0.627
303.15 K, x2 = 0.8999 | 695.21 | 0.524
303.15 K, x2 = 0.92 | 692.88 | –
303.15 K, x2 = 0.94 | 690.48 | –
303.15 K, x2 = 0.9599 | 688.17 | –
308.15 K, x2 = 0 | 811.75 | 4.374
308.15 K, x2 = 0.1003 | 797.48 | 3.283
308.15 K, x2 = 0.2002 | 783.26 | 2.518
308.15 K, x2 = 0.3002 | 769.2 | 1.881
308.15 K, x2 = 0.3999 | 755.43 | 1.437
308.15 K, x2 = 0.5 | 742.02 | 1.13
308.15 K, x2 = 0.6 | 728.74 | 0.913
308.15 K, x2 = 0.6999 | 715.91 | 0.714
308.15 K, x2 = 0.7999 | 703.35 | 0.587
308.15 K, x2 = 0.8999 | 691.05 | 0.496
308.15 K, x2 = 0.92 | 688.71 | –
308.15 K, x2 = 0.94 | 686.3 | –
308.15 K, x2 = 0.9599 | 683.98 | –
313.15 K, x2 = 0 | 808.17 | 3.8
313.15 K, x2 = 0.1003 | 793.83 | 2.875
313.15 K, x2 = 0.2002 | 779.54 | 2.217
313.15 K, x2 = 0.3002 | 765.4 | 1.679
313.15 K, x2 = 0.3999 | 751.57 | 1.298
313.15 K, x2 = 0.5 | 738.08 | 1.018
313.15 K, x2 = 0.6 | 724.74 | 0.825
313.15 K, x2 = 0.6999 | 711.84 | 0.67
313.15 K, x2 = 0.7999 | 699.22 | 0.55
313.15 K, x2 = 0.8999 | 686.85 | 0.465
313.15 K, x2 = 0.92 | 684.51 | –
313.15 K, x2 = 0.94 | 682.09 | –
313.15 K, x2 = 0.9599 | 679.77 | –
318.15 K, x2 = 0 | 804.57 | 3.224
318.15 K, x2 = 0.1003 | 790.15 | 2.503
318.15 K, x2 = 0.2002 | 775.79 | 1.979
318.15 K, x2 = 0.3002 | 761.58 | 1.501
318.15 K, x2 = 0.3999 | 747.67 | 1.176
318.15 K, x2 = 0.5 | 734.12 | 0.934
318.15 K, x2 = 0.6 | 720.71 | 0.758
318.15 K, x2 = 0.6999 | 707.74 | 0.623
318.15 K, x2 = 0.7999 | 695.05 | 0.517
318.15 K, x2 = 0.8999 | 682.63 | 0.439
318.15 K, x2 = 0.92 | 680.27 | –
318.15 K, x2 = 0.94 | 677.84 | –
318.15 K, x2 = 0.9599 | 675.52 | –
323.15 K, x2 = 0 | 800.93 | 2.851
323.15 K, x2 = 0.1003 | 786.43 | 2.209
323.15 K, x2 = 0.2002 | 772 | 1.754
323.15 K, x2 = 0.3002 | 757.71 | 1.351
323.15 K, x2 = 0.3999 | 743.74 | 1.071
323.15 K, x2 = 0.5 | 730.12 | 0.859
323.15 K, x2 = 0.6 | 716.64 | 0.699
323.15 K, x2 = 0.6999 | 703.6 | 0.592
323.15 K, x2 = 0.7999 | 690.85 | 0.487
323.15 K, x2 = 0.8999 | 678.37 | 0.416
323.15 K, x2 = 0.92 | 675.99 | –
323.15 K, x2 = 0.94 | 673.57 | –
323.15 K, x2 = 0.9599 | 671.24 | –
